Data from patent US20180051346A1, “METHODS AND MEANS FOR SUBTYPING INVASIVE LOBULAR BREAST CANCER” (Stichting Het Nederlands Kanker Instituut-Antoni van …, priority 2015, published 2018).

Each compound was assayed on ILC cell lines (assay: Drug sensitivity on the Sanger cell line panel, differential response between IR and HR subtype cell lines). Settings: IR subtype cell lines (10) vs HR subtype cell lines (5); two-sided t-test between the AUC of the dose-response curves; Sanger response data (Garnett et al., 2012).
Type: cell-based
Protocol: Drug sensitivity was assessed on the Sanger cell line panel (internal version 17). We used the cell lines common in our ILC cell line panel and in the Sanger cell line panel. We used cell line AU565 instead of SK-BR-3, which is derived from the same patient. Among the 262 drugs, we focused our assessment on 88 agents that had measurement in at least three cell lines per subtype. With this dataset, we performed a two-sided t-test between the AUC of the dose-response curves of the cell lines in the two subtypes, correcting for multiple testing with the Benjamini-Hochberg method.
To identify candidate therapeutic options, we profiled a set of 15 ILC cell lines as in vitro models. We used their gene expression profiles to map them to the IR (10 cell lines) and HR (5 cell lines). We then used the response data for 88 drugs on a subset of these cell lines, as provided by the Wellcome Trust Sanger Institute (Garnett et al., 2012. Nature 483: 570-575), to test for differential drug sensitivity between the subtypes. We retained six drugs at an FDR<0.25 (FIG. 2).
With `N.N.[Cl][Pt][Cl]` [Cisplatin] the “differential drug sensitivity between the subtypes” value was “more sensitive”.
With Bleomycin the “differential drug sensitivity between the subtypes” value was “more sensitive”.
For `CCc1c2c(nc3ccc(O)cc13)-c1cc3c(c(=O)n1C2)COC(=O)[C@]3(O)CC` [SN-38, (+)-(4S)-4,11-diethyl-4,9-dihydroxy-1H-pyrano[3′,4′:6,7]-indolizino[1,2-b]quinoline-3,14(4H,12H)-dione], the “differential drug sensitivity between the subtypes” value was “more sensitive”.
